# In paper PMC7822874, “Chemoprotective antimalarials identified through quantitative high-throughput screening of Plasmodium blood and liver stage parasites” (Scientific Reports, 2021):
# Like-named read-outs stand apart in the source and are kept apart here.
# What was measured:
# [1] = tested on: P. berghei-ANKA-GFP-LucCON liver stage parasites in HepG2-A16-CD81EGFP cells; test: P. berghei liver stage Pb-Luc assay, Method 1 (UCSD, 1536-well); type: cell-based, Plasmodium berghei; settings: Plasmodium berghei, 48 h; on Pb-Luc signal, 1 uM, repeat 1: reference of the scale not given here; on Pb-Luc signal, 1 uM, repeat 2: reference of the scale not given here; on Pb-Luc signal, 1 uM, repeat 3: reference of the scale not given here; on Pb-Luc signal, 3 uM, repeat 1: reference of the scale not given here; on Pb-Luc signal, 3 uM, repeat 2: reference of the scale not given here; on Pb-Luc signal, 3 uM, repeat 3: reference of the scale not given here
# [2] = tested on: Plasmodium falciparum Dd2 asexual blood stage parasites; test: microbe, parasite or virus in culture; set-up: species or system Plasmodium falciparum Dd2 in human erythrocytes; single determination (one 11-point concentration-response curve); settings: Plasmodium falciparum, DD2, Erythrocyte, 72 h
# in vitro = settings: human; for viability at 48 h, 1 µM / viability at 48 h, 3 µM: HepG2-A16-CD81EGFP cells, uninfected
# [3] = nominal 1 uM (10 mM stock), […] for 15 mM, 1.2 uM for 12 mM, 2 uM for 20 mM stock, average of 2 wells, 1536-well plate, repeat 1, read-out: Pb-Luc signal, 1 uM, repeat 1
# [4] = nominal 1 uM (10 mM stock), […] for 15 mM, 1.2 uM for 12 mM, 2 uM for 20 mM stock, average of 2 wells, 1536-well plate, repeat 2, read-out: Pb-Luc signal, 1 uM, repeat 2
# [5] = nominal 1 uM (10 mM stock), […] for 15 mM, 1.2 uM for 12 mM, 2 uM for 20 mM stock, average of 2 wells, 1536-well plate, repeat 3, read-out: Pb-Luc signal, 1 uM, repeat 3
# [6] = nominal 3 uM (10 mM stock), 4.5 uM for 15 mM, 3.6 uM for 12 mM, 6 uM for 20 mM stock, average of 2 wells, 1536-well plate, repeat 1, read-out: Pb-Luc signal, 3 uM, repeat 1
# [7] = nominal 3 uM (10 mM stock), 4.5 uM for 15 mM, 3.6 uM for 12 mM, 6 uM for 20 mM stock, average of 2 wells, 1536-well plate, repeat 2, read-out: Pb-Luc signal, 3 uM, repeat 2
# [8] = nominal 3 uM (10 mM stock), 4.5 uM for 15 mM, 3.6 uM for 12 mM, 6 uM for 20 mM stock, average of 2 wells, 1536-well plate, repeat 3, read-out: Pb-Luc signal, 3 uM, repeat 3
# [9] = nominal 1 uM (10 mM stock), […] for 15 mM, 1.2 uM for 12 mM, 2 uM for 20 mM stock, average of 2 wells, repeat 2
# [10] = nominal 3 uM (10 mM stock), 4.5 uM for 15 mM, 3.6 uM for 12 mM, 6 uM for 20 mM stock, average of 2 wells, repeat 2
# [11] = read-out: Pb-Luc P. berghei liver stage signal, repeat 1
# [12] = read-out: Pb-Luc P. berghei liver stage signal, repeat 2
# [13] = read-out: Pb-Luc P. berghei liver stage signal, repeat 3
SMILES,"activity at 1 µM [1, 3] [%]","activity at 1 µM [1, 4] [%]","activity at 1 µM [1, 5] [%]","activity at 3 µM [1, 6] [%]","activity at 3 µM [1, 7] [%]","activity at 3 µM [1, 8] [%]",AC50 ([2]; read-out: AC50) [µM],"HepG2 viability signal, 1 uM, repeat 2 (HepG2-A16-CD81EGFP cells; [9]) [%]","HepG2 viability signal, 3 uM, repeat 2 (HepG2-A16-CD81EGFP cells; [10]) [%]","viability at 48 h, 1 µM (in vitro) [%]","viability at 48 h, 3 µM (in vitro) [%]",also measured
CC(C)C(=O)N1Cc2ccccc2CC2(CCCN(CC3CCCCC3)C2)C1 (stereo not shown) [NCGC00377456-01],94.7,96.1,116,81.5,98,85.1,0.0531,102.51,104.36,100,105,
CC1=C(C(=O)Nc2ccc(C)cc2C)C(c2ccc(Br)cc2)n2ncc(C(=O)Nc3cccc(C)c3)c2N1 (stereo not shown) [NCGC00126300-01],94.7,120,115,75.3,87.7,102,3.35,95.30,90.59,102,94.6,
CCOC(=O)c1ccc(NC2=CC(c3ccc(O)c(OCC)c3)N(c3ccc(C(=O)OCC)cc3)C2=O)cc1 (stereo not shown) [NCGC00102600-01],107,140,101,117,126,113,3.35,100.94,102.23,98.6,101,
COc1ccc(-c2cc(=O)oc3c4c(ccc23)OCN(Cc2ccccc2)C4)cc1 [NCGC00116344-01],71.5,126,103,62.6,101,76.9,2.99,95.59,97.26,98.2,101,
O=C(Nc1ccc2c(N3CCCC3)ncnc2c1)c1cccc(F)c1 [NCGC00425501-01],97.2,101,106,56.8,72.2,29.3,4.73,97.92,95.12,98.5,94.4,
Cc1ccc(O)c([C@H](CCN(C(C)C)C(C)C)c2ccccc2)c1 [NCGC00159519-02],,,,,,,,,,,,"activity at 1 µM [1, 11]: 106%; activity at 3 µM [1, 11]: 74.9%; activity at 1 µM [1, 12]: 80%; activity at 3 µM [1, 12]: 85.4%; activity at 1 µM [1, 13]: 106%; activity at 3 µM [1, 13]: 89%; AC50 [2]: 4.22 µM; HepG2 viability, fourth HepG2 column (HepG2-A16-CD81EGFP cells; human): 99.21%; HepG2 viability, second HepG2 column (HepG2-A16-CD81EGFP cells; human): 104.09%; HepG2 viability, third HepG2 column (HepG2-A16-CD81EGFP cells; human): 100.98%; viability (in vitro): 103%"
CCOC(=O)C1(Cc2ccccc2Cl)CCNCC1 [NCGC00430911-01],78.1,97.3,89.2,74.5,106,93.5,2.66,100.98,101.65,94.6,94.7,
CC(C)c1ccccc1Oc1c(C(F)(F)F)oc2c(CN3CCN(C)CC3)c(O)ccc2c1=O [NCGC00100597-01],104,108,80.4,67.9,95.1,69.5,0.668,96.39,99.40,101,102,
Cc1ccc(C)c(Cn2c(=O)n(CCCCC(=O)NCc3ccc4c(c3)OCO4)c(=O)c3ccccc32)c1 [NCGC00106276-01],69,120,109,132,95.7,87.2,6.68,102.61,103.78,99.1,93.3,
CCN1CCN(c2cc(C)c3cc(NC(=O)c4cc(OC)c(OC)c(OC)c4)ccc3n2)CC1 [NCGC00137500-01],125,156,138,126,103,114,1.33,103.37,106.17,100,103,
CCOc1ccc(Cl)cc1CN(C)CC1(O)CCCNC1 (stereo not shown) [NCGC00439019-01],133,111,171,102,113,128,2.99,100.51,101.33,99.5,96.9,
COc1cc(C(=O)NC2CCCc3c2[nH]c2c(Cl)cccc32)cc(OC)c1OC (stereo not shown) [NCGC00424034-01],122,161,165,157,165,156,2.11,98.86,98.35,101,98.2,
c1ccc(Nc2cc3c(cn2)CN(Cc2ccc4[nH]ccc4c2)CCN3)cc1 [NCGC00411105-01],55.9,72.5,17.8,23.8,30.2,10.7,1.37,44.56,55.41,40.4,43.5,
CCC(=O)N1CCc2cc(Br)cc([S+](=O)([O-])N3CCCC(C(=O)Nc4ccc(OC)c(Cl)c4)C3)c21 (stereo not shown) [NCGC00106201-01],76.1,86.6,75.8,53.5,100,60,,,,90.7,82.3,"HepG2 viability signal, 1 uM, repeat 2 (HepG2-A16-CD81EGFP cells): 91.30%; HepG2 viability signal, 3 uM, repeat 2 (HepG2-A16-CD81EGFP cells): 86.54%"
Cc1ccccc1CC(=O)NCc1nnc2cc(-c3nc(C4CC4)no3)ccn12 [NCGC00457761-01],130,129,103,86.9,122,133,,102.90,101.49,109,107,
CCOC(=O)C1(Cc2ccccc2C(F)(F)F)CCNCC1 [NCGC00433719-01],99.2,89.8,165,76.2,96.6,91.6,,106.17,103.00,108,105,
COc1ccc(CN2CCCC3(C2)C(NC2CCCCC2)=NC(=O)N3c2cc(F)cc(F)c2)cc1 (stereo not shown) [NCGC00373972-01],89.2,98.6,137,120,103,87.7,,102.91,99.86,107,105,
COc1ccccc1NC(=O)Cn1cccc1-c1nc(-c2ccc(F)cc2)no1 [NCGC00445349-01],128,112,138,108,129,93.3,,104.40,104.77,107,107,
